Data set [1] relates to Rattus norvegicus. The data set is described as follows: Anti-inflammatory activity following oral administration. It counts as functional.
The test system of data set [2] is Mus musculus. The data set is described as follows: Ulcer index by number of mice bearing ulcer at dose 30 mg/kg out of 5 mice tested. It counts as functional.
For data set [3], the system named is Rattus norvegicus. The data set can be described thus: Percent inhibition against carrageenan-induced rat paw edema at 50 mg/kg dose administered perorally; 41-50%. The following applies: route oral. It counts as functional. (In the carrageenan paw model, swelling and tenderness develop within hours.)
In data set [4] the test system is Mus musculus. The data set is described as follows: Toxicity by number of mice dead at dose 500 mg/kg out of 5 mice tested by oral administration route; Value represented as 0/5. It counts as organism-based. Details: dose 500 mg/kg, route oral. Conditions: in vivo.
Data set [5] deals with Mus musculus. The data set can be described thus: Number of mice bearing ulcer at dose 30 mg/kg out of 5 mices tested. It counts as functional.
The subject of data set [6] is Rattus norvegicus. The data set can be described thus: Analgesic activity by oral administration route. It counts as functional.

Structures are written as SMILES.

For the compound `Cc1ccc2c(-c3ccccc3)nc(=O)n(C(C)C)c2c1` [PROQUAZONE], the figures for the ED30 in data set [1] and in data set [6] were 10 mg/kg and 20 mg/kg, respectively. The “Ulcer Index” value in data set [2] worked out at 0.12. Moreover, in data set [3], the inhibition in vivo at 50 mg/kg was 50%. Besides, the Toxicity in data set [4] was found to be 0. In data set [5], this compound gave a No. of mice of 4.

Usually inhibition in vivo stands for the percentage by which the read-out fell short of the control. Lower therefore signals little suppression.

(Values after ChEMBL document CHEMBL1123144, “Studies on 4(1H)-quinazolinones. 5. Synthesis and antiinflammatory activity of 4(1H)-quinazolinone derivatives” (J Med Chem, 1985).)
